Data as given in patent publication US5504101A, “5-HT-1D receptor ligands” (priority 1994, dated 1996).

Target: T1, 5-HT1Dβ receptor (Homo sapiens, UniProt P28222)
T1 construct: expressed in transfected cells
Assay: biochemical
Assay type: binding
Conditions: ^3 H-5-HT radioligand; membranes from recombinant cells; 15 minute incubation at 37° C.; test compound 10^-11 M to 10^-5 M
Method: The assay protocol generally entailed the incubation of membranes prepared from cells expressing the 1Dβ sub-type of 5-HT1D receptors, with ^3 H-5-HT. Increasing concentrations of the test compound were incubated with the radioligand and the membrane homogenates prepared from the recombinant cells. After a 15 minute incubation at 37° C., the incubation was terminated by vacuum filtration. The filters were washed with buffer and counted for radioactivity using liquid scintillation spectrometry. The affinity of the test compound for 5-HT1DIβ receptor was determined by computer-assisted analysis of the data and by determining the amount of the compound necessary to inhibit 50% of the binding of the radioligand to the receptor. Concentrations ranging from 10^-11 M to 10^-5 M of the test compounds were evaluated.

T1 sequence (P28222 whole entry): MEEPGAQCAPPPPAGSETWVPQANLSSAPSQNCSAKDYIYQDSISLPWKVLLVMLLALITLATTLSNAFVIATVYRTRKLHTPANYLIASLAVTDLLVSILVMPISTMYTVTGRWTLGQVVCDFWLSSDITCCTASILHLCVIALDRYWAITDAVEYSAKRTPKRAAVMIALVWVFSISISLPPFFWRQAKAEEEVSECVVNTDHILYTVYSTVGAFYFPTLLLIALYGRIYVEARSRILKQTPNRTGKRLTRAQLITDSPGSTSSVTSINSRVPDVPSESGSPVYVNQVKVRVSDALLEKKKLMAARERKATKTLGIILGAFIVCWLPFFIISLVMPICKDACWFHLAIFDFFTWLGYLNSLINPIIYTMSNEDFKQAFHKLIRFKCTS

Q: `NCCc1c[nH]c2ccc(Cc3ccccc3)cc12` [PhCH2 --, 3-(2-aminoethyl)-5-benzylindole] was tested. Which Ki did it give?
A: 3.7 nM

Q: `NCCc1c[nH]c2ccc(OCCc3ccccc3)cc12` [Ph(CH2)2 O--, 3-(2-aminoethyl)-5-(2-phenylethyloxy)indole] was tested. Which Ki did it give?
A: 1 nM

Q: Which Ki does the source give for `NCCc1c[nH]c2ccc(OCCCCCc3ccccc3)cc12` [Ph(CH2)5 O--, 3-(2-aminoethyl)-5-(5-phenylpentyloxy)indole] here?
A: 0.64 nM

Q: `NCCc1c[nH]c2ccc(OCCCCc3ccccc3)cc12` [Ph(CH2)4 O--, 3-(2-aminoethyl)-5-(4-phenylbutyloxy)indole] was tested. Which Ki did it give?
A: 0.19 nM

Q: With `NCCc1c[nH]c2ccc(OCc3ccccc3)cc12` [PhCH2 O--, 3-(2-aminoethyl)-5-benzyloxyindole, reference compound] as the compound, how does the Ki read?
A: 10.5 nM

Q: How did the Ki turn out when `NCCc1c[nH]c2ccc(OCCCCCCCCc3ccccc3)cc12` [Ph(CH2)8 O--, reference compound] was run?
A: 13.3 nM

Q: Which Ki does the source give for `NCCc1c[nH]c2ccc(OCCCCCCc3ccccc3)cc12` [Ph(CH2)6 O--, 3-(2-aminoethyl)-5-(6-phenylhexyloxy)indole] here?
A: 1.9 nM

Q: How did the Ki turn out when `NCCc1c[nH]c2ccc(CCc3ccccc3)cc12` [Ph(CH2)2 --, 3-(2-aminoethyl)-5-(2-phenylethyl)-indole] was run?
A: 2.9 nM

Q: With `COc1ccc(CCc2ccc3[nH]cc(CCN)c3c2)cc1` [4-MeO--Ph(CH2)2 --, 3-(2-aminoethyl)-5-(2-(4-methoxyphenyl)ethyl)indole] as the compound, how does the Ki read?
A: 3.2 nM
